Measured values reported in patent US7718808B2, “Thiazole derivatives” (Kyowa Hakko Kirin Co., Ltd., priority 2003, dated 2010).

SMILES | melting point [°C]
COc1ccc(-c2sc(NC(=O)c3ccccc3)nc2-c2ccco2)cc1 [Compound 119, N-[4-(2-Furyl)-5-(4-methoxyphenyl)thiazol-2-yl]benzamide] | 90 to 98
CN1CCN(CC(=O)Nc2nc(-c3ccco3)c(C(=O)c3ccccn3)s2)CC1=O.Cl | 170 to 188
COc1ccc(C(=O)Nc2nc(-c3ccco3)c(-c3ccncc3)s2)cc1 [Compound 103, N-[4-(2-Furyl)-5-(4-pyridyl)thiazol-2-yl]-4-methoxybenzamide] | 235 to 245
O=C(Nc1nc(-c2ccco2)c(C(=O)C2CCC2)s1)C1CC1 [Compound 427, N-[5-(Cyclobutylcarbonyl)-4-(2-furyl)thiazol-2-yl]cyclopropanecarboxamide] | 200 to 205
O=C(Nc1nc(-c2ccco2)c(C(=O)C2CCOCC2)s1)c1ccsc1 [Compound 518, N-[4-(2-Furyl)-5-(tetrahydropyran-4-ylcarbonyl)thiazol-2-yl]thiophene-3-carboxamide] | 227 to 229
CN(C)c1cccc(C(=O)Nc2nc(-c3ccco3)c(C(=O)C3CCOCC3)s2)c1 [Compound 464, 3-(Dimethylamino)-N-[4-(2-furyl)-5-(tetrahydropyran-4-ylcarbonyl)thiazol-2-yl]benzamide] | 239 to 243
CCCC(=O)c1sc(NC(=O)C2CC2)nc1-c1ccco1 [Compound 385, N-[5-Butyryl-4-(2-furyl)thiazol-2-yl]cyclopropanecarboxamide] | 170 to 172
O=C(Nc1nc(-c2ccco2)c(C(=O)c2ccccn2)s1)OC1CCOCC1 [Compound 253, 4-Tetrahydropyranyl N-[4-(2-furyl)-5-(pyridin-2-ylcarbonyl)thiazol-2-yl]carbamate] | 144 to 145
O=C(Nc1nc(-c2ccco2)c(C(=O)C2CCCC2)s1)C1CC1 [Compound 434, N-[5-(Cyclopentylcarbonyl)-4-(2-furyl)thiazol-2-yl]cyclopropanecarboxamide] | 182 to 187
O=C(Nc1nc(-c2ccco2)c(C(=O)c2ccccn2)s1)c1cccs1 [Compound 241, N-[4-(2-Furyl)-5-(pyridin-2-ylcarbonyl)thiazol-2-yl]thiophene-2-carboxamide] | 197 to 199
CCN1CCN(CC(=O)Nc2nc(-c3ccco3)c(C(=O)c3ccccn3)s2)CC1 [Compound 273, 2-(4-Ethylpiperazin-1-yl)-N-[4-(2-furyl)-5-(pyridin-2-ylcarbonyl)thiazol-2-yl]acetamide] | 142 to 144
O=C(Nc1nc(-c2ccco2)c(C(=O)c2ccccc2)s1)c1ccc(=O)n(Cc2ccncc2)c1 [Compound 152, N-[5-Benzoyl-4-(2-furyl)thiazol-2-yl]-2-oxo-1-(pyridin-4-ylmethyl)-1,2-dihydropyridine-5-carboxamide] | 270 to 275
Cn1ccc(-c2sc(NC(=O)c3ccncc3)nc2-c2ccco2)cc1=O [Compound 123, N-[4-(2-Furyl)-5-(1-methyl-2-oxo-1,2-dihydropyridine-4-yl)thiazol-2-yl]pyridine-4-carboxamide] | 280 to 282
Cc1cnc(C(=O)Nc2nc(-c3ccco3)c(C(=O)c3ccccn3)s2)cn1 [Compound 230, N-[4-(2-Furyl)-5-(pyridine-2-ylcarbonyl)thiazol-2-yl]-5-methylpyrazine-2-carboxamide] | 208 to 209
O=C(Nc1nc(-c2ccco2)c(C(=O)C2CCOCC2)s1)c1ccc(C(F)(F)F)nc1 [Compound 505, N-[4-(2-Furyl)-5-(tetrahydropyran-4-ylcarbonyl)thiazol-2-yl]-2-(trifluoromethyl)pyridine-5-carboxamide] | 217 to 222
O=C(CN1CCSC1)Nc1nc(-c2ccco2)c(C(=O)c2ccccn2)s1 [Compound 281, N-[4-(2-Furyl)-5-(pyridin-2-ylcarbonyl)thiazol-2-yl]-2-(1,3-thiazolidin-3-yl)acetamide] | 153 to 155
Cc1ccc(C(=O)Nc2nc(-c3ccco3)c(C(=O)C3CCOCC3)s2)o1 [Compound 512, N-[4-(2-Furyl)-5-(tetrahydropyran-4-ylcarbonyl)thiazol-2-yl]-5-methylfuran-2-carboxamide] | 209 to 212
CCCC(=O)c1sc(NC(=O)c2ccncc2)nc1-c1ccco1 [Compound 382, N-[5-Butyryl-4-(2-furyl)thiazol-2-yl]pyridine-4-carboxamide] | 191 to 194
O=C(Cc1ccccc1)Nc1nc(-c2ccco2)c(C(=O)C2CCOCC2)s1 [Compound 526, N-[4-(2-Furyl)-5-(tetrahydropyran-4-ylcarbonyl)thiazol-2-yl]-2-phenylacetamide] | 140 to 142
CN1CCN(CC(=O)Nc2nc(-c3ccco3)c(C(=O)C3CCOCC3)s2)CC1 [Compound 562, N-[4-(2-Furyl)-5-(tetrahydropyran-4-ylcarbonyl)thiazol-2-yl]-2-(4-methylpiperazin-1-yl)acetamide] | 106 to 112

SMILES | melting point [°C]
COC1CCN(CC(=O)Nc2nc(-c3ccco3)c(C(=O)C3CCOCC3)s2)CC1 [Compound 545, N-[4-(2-Furyl)-5-(tetrahydropyran-4-ylcarbonyl)thiazol-2-yl]-2-(4-methoxypiperidino)acetamide] | 109 to 111
O=C(Nc1nc(-c2ccco2)c(C(=O)c2ccccn2)s1)c1ccc2c(c1)OCO2 [Compound 209, N-[4-(2-Furyl)-5-(pyridin-2-ylcarbonyl)thiazol-2-yl]-3,4-methylenedioxybenzamide] | 235 to 236
COc1cc(C(=O)c2sc(NC(=O)c3ccncc3)nc2-c2ccco2)ccn1 [Compound 336, N-[4-(2-Furyl)-5-(2-methoxypyridin-4-ylcarbonyl)thiazol-2-yl]pyridine-4-carboxamide] | 237 to 239
Cc1cc(C(=O)Nc2nc(-c3ccco3)c(C(=O)C3CCC(=O)CC3)s2)ccn1 [Compound 449, N-[4-(2-Furyl)-5-(4-oxocyclohexylcarbonyl)thiazol-2-yl]-2-methylpyridine-4-carboxamide] | 108 to 115
CC(C)(O)c1cc2cc(C(=O)Nc3nc(-c4ccco4)c(C(=O)c4ccccn4)s3)ccc2o1 [Compound 247, N-[4-(2-Furyl)-5-(pyridin-2-ylcarbonyl)thiazol-2-yl]-2-(1-hydroxy-1-methylethyl)-1-benzofuran-5-carboxamide] | 230 to 231
Cc1occc1C(=O)Nc1nc(-c2ccco2)c(C(=O)c2ccccn2)s1 [Compound 239, N-[4-(2-Furyl)-5-(pyridin-2-ylcarbonyl)thiazol-2-yl]-2-methylfuran-3-carboxamide] | 183 to 186
CN(C)CC(=O)Nc1nc(-c2ccco2)c(C(=O)C2CCOCC2)s1 [Compound 533, 2-(Dimethylamino)-N-[4-(2-furyl)-5-(tetrahydropyran-4-ylcarbonyl)thiazol-2-yl]acetamide] | 129 to 130
O=C(Nc1nc(-c2ccco2)c(-c2ccn(Cc3ccccc3)c(=O)c2)s1)c1ccncc1 [Compound 125, N-[5-(1-Benzyl-2-oxo-1,2-dihydropyridin-4-yl)-4-(2-furyl)thiazol-2-yl]pyridine-4-carboxamide] | 137 to 140
O=C(Nc1nc(-c2ccco2)c(C(=O)C2CCOCC2)s1)c1ccnc(Cl)c1 [Compound 499, 2-Chloro-N-(4-(2-furyl)-5-(tetrahydropyran-4-ylcarbonyl)thiazol-2-yl]pyridine-4-carboxamide] | 185 to 186
O=C(Nc1nc(-c2ccco2)c(C(=O)c2cnccn2)s1)c1ccncc1 [Compound 374, N-[4-(2-Furyl)-5-(pyrazin-2-ylcarbonyl)thiazol-2-yl]pyridine-4-carboxamide] | > 300
COCC(=O)c1sc(NC(=O)c2ccc(Cl)nc2)nc1-c1ccco1 [Compound 404, 2-Chloro-N-[4-(2-furyl)-5-(methoxyacetyl)thiazol-2-yl]pyridine-5-carboxamide] | 174 to 183
O=C(CNC12CC3CC(CC(O)(C3)C1)C2)Nc1nc(-c2ccco2)c(C(=O)C2CCOCC2)s1 [Compound 578, N-[4-(2-Furyl)-5-(tetrahydropyran-4-ylcarbonyl)thiazol-2-yl]-2-(3-hydroxyadamantan-1-ylamino)acetamide] | 176 to 178
Cc1cc(C(=O)Nc2nc(-c3ccco3)c(C(=O)c3ccccn3)s2)ccn1 [Compound 212, N-[4-(2-Furyl)-5-(pyridin-2-ylcarbonyl)thiazol-2-yl]-2-methylpyridine-4-carboxamide] | 187 to 188
Cn1nnc2ccc(C(=O)Nc3nc(-c4ccco4)c(C(=O)c4ccccn4)s3)cc21 [Compound 245, N-[4-(2-Furyl)-5-(pyridin-2-ylcarbonyl)thiazol-2-yl]-1-methyl-1H-benzotriazole-6-carboxamide] | 230 to 231
O=C(Nc1nc(-c2ccco2)c(C(=O)c2ccccn2)s1)c1ccncc1Cl [Compound 215, 3-Chloro-N-[4-(2-furyl)-5-(pyridin-2-ylcarbonyl)thiazol-2-yl]pyridine-4-carboxamide] | 206 to 207
CN(C)CCN(C)Cc1cc(C(=O)Nc2nc(-c3ccco3)c(-c3ccncc3)s2)ccn1 [Compound 109, 2-{N-[2-(Dimethylamino)ethyl]-N-methylaminomethyl}-N-[4-(2-furyl)-5-(4-pyridyl)thiazol-2-yl]pyridine-4-carboxamide] | 203 to 205
CCN(CC)C(=O)C1CCCN(CC(=O)Nc2nc(-c3ccco3)c(C(=O)c3ccccn3)s2)C1.Cl (stereo not shown) | 180 to 185
O=C(Nc1nc(-c2ccco2)c(C(=O)c2ccccn2)s1)c1cnc2occc2c1 [Compound 248, N-[4-(2-Furyl)-5-(pyridin-2-ylcarbonyl)thiazol-2-yl]furo[2,3-b]pyridine-5-carboxamide] | 234 to 235
O=C(CN1CCC2(CC1)OCCO2)Nc1nc(-c2ccco2)c(C(=O)c2ccccn2)s1 [Compound 269, 2-(1,4-Dioxa-8-azaspiro[4.5]decan-8-yl)-N-[4-(2-furyl)-5-(pyridin-2-ylcarbonyl)thiazol-2-yl]acetamide] | 188 to 204
O=C(CN1CCCCC1)Nc1nc(-c2ccco2)c(C(=O)C2CCOCC2)s1 [Compound 542, N-[4-(2-Furyl)-5-(tetrahydropyran-4-ylcarbonyl)thiazol-2-yl]-2-piperidinoacetamide] | 146 to 147
